Like-named read-outs stand apart in the source and are kept apart here.
How the values were obtained:
[1] = system: ZEM9A (clinical MDR P. aeruginosa isolate)
In short: (§1)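 MIC read visually after MTT staining: lowest compound concentration preventing visible growth (yellow wells). Inoculum ~5 × 10^5 CFU per well in MH broth; static incubation at 37 °C for ca. 18 h.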

[2] = system: PA14 2P4 (pmrB)
In short: as §1

[3] = system: ZEM-1A (clinical MDR P. aeruginosa isolate)
In short: as §1

[4] = system: E. coli W3110
In short: as §1

[5] = system: K. pneumoniae OXA-48
In short: as §1

[6] = system: A. baumannii ATCC19606
In short: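 MTT added (20–30 min, room temperature); MIC read by eye as lowest concentration inhibiting visible growth (yellow). Polymyxin B positive control from 16 μg/mL.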

[7] = system: E. cloacae
In short: as §1

[8] = system: S. aureus COL (MRSA)
In short: as §1

[9] = system: PA14 4.13 (phoQ)
In short: as §1

[10] = diluted MH ([…] MH, pH 8.5) per Table 1 footnote b, 16–20 h at 37 °C
[11] = full MH, pH 7.4, 16–20 h at 37 °C

H-KKLLKLLKLLL-NH2 [ln65, reference compound]
2 ug/mL: MIC P. aeruginosa ZEM-1A, full MH at pH 7.4 ([3]; CSV, full MH at pH 7.4) | MIC E. coli W3110, […] MH at pH 7.4 ([4]; CSV, […] MH at pH 7.4) | MIC E. coli W3110, […] MH at pH 8.5 ([4]; CSV, […] MH at pH 8.5) | MIC K. pneumoniae OXA-48, full MH at pH 7.4 ([5]; CSV, full MH at pH 7.4) | MIC A. baumannii ATCC19606, […] MH at pH 8.5 ([6]; CSV, […] MH at pH 8.5) | MIC E. cloacae, full MH at pH 7.4 ([7]; CSV, full MH at pH 7.4) | MIC S. aureus COL (MRSA), […] MH at pH 7.4 ([8]; CSV, […] MH at pH 7.4) | MIC S. aureus COL (MRSA), […] MH at pH 8.5 ([8]; CSV, […] MH at pH 8.5) | MIC P. aeruginosa PA14 4.13, […] MH at pH 8.5 ([9]; CSV, […] MH at pH 8.5)
32 µg/mL: MIC PA14 2P4 (pmrB) ([2]; MH pH 7.4, 16–20 h at 37 °C)
4 µg/mL: MIC P. aeruginosa ZEM9A ([1]; Table S3, […] MH at pH 8.5) | MIC P. aeruginosa ZEM-1A ([3]; Table S3, […] MH at pH 8.5) | MIC E. coli W3110 Full MH 7.4 ([4]; Table S2, full MH, pH 7.4) | MIC K. pneumoniae OXA-48 ([5]; Table S3, […] MH at pH 8.5) | MIC A. baumannii ATCC19606 […] 7.4 ([6]; Table S2, […] MH, pH 7.4) | MIC A. baumannii ATCC19606 […] [6, 10] | MIC E. cloacae ([7]; Table S3, […] MH at pH 8.5) | MIC S. aureus COL (MRSA) Full MH 7.4 ([8]; Table S2, full MH, pH 7.4) | MIC S. aureus COL (MRSA) Full [8, 11] | MIC PA14 4.13 (phoQ) ([9]; MH pH 7.4, 16–20 h at 37 °C)
8 µg/mL: MIC E. coli W3110 Full MH 8.5 ([4]; Table S2, full MH, pH 8.5) | MIC A. baumannii ATCC19606 Full MH 8.5 ([6]; Table S2, full MH, pH 8.5) | MIC S. aureus COL (MRSA) Full MH 8.5 ([8]; Table S2, full MH, pH 8.5)
2 µg/mL: MIC ZEM-1A ([3]; MH pH 7.4, 16–20 h at 37 °C) | MIC E. coli W3110 […] 7.4 ([4]; Table S2, […] MH, pH 7.4) | MIC E. coli W3110 […] 8.5 ([4]; Table S2, […] MH, pH 8.5) | MIC K. pneumoniae OXA-48 ([5]; MH pH 7.4, 16–20 h at 37 °C) | MIC A. baumannii ATCC19606 […] 8.5 ([6]; Table S2, […] MH, pH 8.5) | MIC E. cloacae ([7]; MH pH 7.4, 16–20 h at 37 °C) | MIC S. aureus COL (MRSA) […] 7.4 ([8]; Table S2, […] MH, pH 7.4) | MIC S. aureus COL (MRSA) […] 8.5 ([8]; Table S2, […] MH, pH 8.5) | MIC S. aureus COL (MRSA) […] [8, 10] | MIC P. aeruginosa PA14 4.13 ([9]; Table S3, […] MH at pH 8.5)
3 ug/mL: MIC P. aeruginosa PA14 2P4, […] MH at pH 8.5 ([2]; CSV, […] MH at pH 8.5) | MIC A. baumannii ATCC19606, full MH at pH 7.4 ([6]; CSV, full MH at pH 7.4)
32 ug/mL: MIC P. aeruginosa PA14 2P4, full MH at pH 7.4 ([2]; CSV, full MH at pH 7.4)
4 ug/mL: MIC P. aeruginosa ZEM9A, full MH at pH 7.4 ([1]; CSV, full MH at pH 7.4) | MIC P. aeruginosa ZEM-1A, […] MH at pH 8.5 ([3]; CSV, […] MH at pH 8.5) | MIC E. coli W3110, full MH at pH 7.4 ([4]; CSV, full MH at pH 7.4) | MIC K. pneumoniae OXA-48, […] MH at pH 8.5 ([5]; CSV, […] MH at pH 8.5) | MIC A. baumannii ATCC19606, […] MH at pH 7.4 ([6]; CSV, […] MH at pH 7.4) | MIC E. cloacae, […] MH at pH 8.5 ([7]; CSV, […] MH at pH 8.5) | MIC S. aureus COL (MRSA), full MH at pH 7.4 ([8]; CSV, full MH at pH 7.4) | MIC P. aeruginosa PA14 4.13, full MH at pH 7.4 ([9]; CSV, full MH at pH 7.4)
8 ug/mL: MIC A. baumannii ATCC19606, full MH at pH 8.5 ([6]; CSV, full MH at pH 8.5) | MIC S. aureus COL (MRSA), full MH at pH 8.5 ([8]; CSV, full MH at pH 8.5)
2 to 4 µg/mL: MIC P. aeruginosa PA14 2P4 ([2]; Table S3, […] MH at pH 8.5) | MIC A. baumannii ATCC19606 Full MH 7.4 ([6]; Table S2, full MH, pH 7.4) | MIC A. baumannii ATCC19606 Full [6, 11]
